PubChem BioAssay AID1963985 (Molecular Pharmacology Branch, DTP, NCI, 2024)

System: 252836-082-R-J2-PDC tumor spheroids, viability
Experiment: Anticancer human tumor 252836-082-R-J2-PDC patient-derived head and neck squamous cell carcinoma cell line growth inhibition [PI3K]
Settings: spheroids with HUVEC and MSC; for viability, T/C: stronger effect = lower value
Summary of the method: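 Tumor cells were combined with HUVEC and MSCs into spheroids, then dosed with PI3K-inhibitor combinations over half-log ranges capped near clinical Cmax or 10 microM.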

[1] = curve of first compound, second compound 0.0316 µM
[2] = curve of first compound, second compound 0.1 µM
[3] = curve of first compound, second compound 0.316 µM
[4] = curve of first compound, second compound 1 µM
[5] = second compound 0.0316 µM, first compound 0.000316 µM
[6] = second compound 0.0316 µM, first compound 0.001 µM
[7] = second compound 0.0316 µM, first compound 0.00316 µM
[8] = second compound 0.0316 µM, first compound 0.01 µM
[9] = second compound 0.0316 µM, first compound 0.0316 µM
[10] = second compound 0.0316 µM, first compound 0.1 µM
[11] = second compound 0.1 µM, first compound 0.000316 µM
[12] = second compound 0.1 µM, first compound 0.001 µM
[13] = second compound 0.1 µM, first compound 0.00316 µM
[14] = second compound 0.1 µM, first compound 0.01 µM
[15] = second compound 0.1 µM, first compound 0.0316 µM
[16] = second compound 0.1 µM, first compound 0.1 µM
[17] = second compound 0.316 µM, first compound 0.000316 µM
[18] = second compound 0.316 µM, first compound 0.001 µM
[19] = second compound 0.316 µM, first compound 0.00316 µM
[20] = second compound 0.316 µM, first compound 0.01 µM
[21] = second compound 0.316 µM, first compound 0.0316 µM
[22] = second compound 0.316 µM, first compound 0.1 µM
[23] = second compound 1 µM, first compound 0.000316 µM
[24] = second compound 1 µM, first compound 0.001 µM
[25] = second compound 1 µM, first compound 0.00316 µM
[26] = second compound 1 µM, first compound 0.01 µM
[27] = second compound 1 µM, first compound 0.0316 µM
[28] = second compound 1 µM, first compound 0.1 µM
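Also: spheroids exposed to agents for seven days before readout.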
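For viability, T/C in this document: percent of vehicle DMSO control viability so 100% = untreated growth.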

CC(C)n1nc(-c2ccc3oc(N)nc3c2)c2c(N)ncnc21 + COc1c(OCCCN2CCOCC2)ccc2c3n(c(=NC(=O)c4cnc(N)nc4)nc12)CCN3
IC50 (curve of first compound, second compound 0.00316 µM): 19 nM | IC50 (curve of first compound, second compound 0.01 µM): 16.5 nM | IC50 [1]: 3.33 nM | IC50 [2]: < 0.316 nM | IC50 [3]: < 0.316 nM | IC50 [4]: < 0.316 nM | viability, T/C (second compound 0.00316 µM, first compound 0.000316 µM): 81.7% | viability, T/C (second compound 0.00316 µM, first compound 0.001 µM): 81.9% | viability, T/C (second compound 0.00316 µM, first compound 0.00316 µM): 74.9% | viability, T/C (second compound 0.00316 µM, first compound 0.01 µM): 58.1% | viability, T/C (second compound 0.00316 µM, first compound 0.0316 µM): 43.1% | viability, T/C (second compound 0.00316 µM, first compound 0.1 µM): 20.8% | viability, T/C (second compound 0.01 µM, first compound 0.000316 µM): 78.7% | viability, T/C (second compound 0.01 µM, first compound 0.001 µM): 73.5% | viability, T/C (second compound 0.01 µM, first compound 0.00316 µM): 74.9% | viability, T/C (second compound 0.01 µM, first compound 0.01 µM): 57.8% | viability, T/C (second compound 0.01 µM, first compound 0.0316 µM): 38.5% | viability, T/C (second compound 0.01 µM, first compound 0.1 µM): 20.5% | viability, T/C [5]: 58.3% | viability, T/C [6]: 58.4% | viability, T/C [7]: 48.4% | viability, T/C [8]: 42.1% | viability, T/C [9]: 31.4% | viability, T/C [10]: 15.3% | viability, T/C [11]: 30.4% | viability, T/C [12]: 34.8% | viability, T/C [13]: 33.1% | viability, T/C [14]: 28.1% | viability, T/C [15]: 18.3% | viability, T/C [16]: 9.85% | viability, T/C [17]: 17.8% | viability, T/C [18]: 18.9% | viability, T/C [19]: 12.1% | viability, T/C [20]: 9.92% | viability, T/C [21]: 8.75% | viability, T/C [22]: 2.66% | viability, T/C [23]: 4.87% | viability, T/C [24]: 3.85% | viability, T/C [25]: 4.39% | viability, T/C [26]: 3.18% | viability, T/C [27]: 3.53% | viability, T/C [28]: 2.06%

CCCS(=O)(=O)Nc1ccc(F)c(C(=O)c2c[nH]c3ncc(-c4ccc(Cl)cc4)cc23)c1F
viability, T/C (compound 0.0316 µM): 99% [middle of 4 runs] | viability, T/C (compound 1 µM): 96.2% [middle of 4 runs] | viability, T/C (compound 3.16 µM): 90% [middle of 4 runs] | viability, T/C (compound 10 µM): 8.42% [middle of 4 runs] | IC50 (curve of compound): 5.49 µM [middle of 4 runs]

Cn1ncnc1[C@H]1c2n[nH]c(=O)c3cc(F)cc(c23)N[C@@H]1c1ccc(F)cc1 + CC(Nc1ncnc2nc[nH]c12)c1cc2cccc(Cl)c2c(=O)n1-c1ccccc1
IC50 [1]: > 100 nM | IC50 [2]: > 100 nM | IC50 [3]: > 100 nM | IC50 [4]: > 100 nM | IC50 (curve of first compound, second compound 3.16 µM): 90.3 nM | IC50 (curve of first compound, second compound 10 µM): 23.1 nM | viability, T/C [5]: 95.5% | viability, T/C [6]: 79.7% | viability, T/C [7]: 94% | viability, T/C [8]: 94.4% | viability, T/C [9]: 79.6% | viability, T/C [10]: 58.8% | viability, T/C [11]: 94.3% | viability, T/C [12]: 82.6% | viability, T/C [13]: 79.3% | viability, T/C [14]: 87.6% | viability, T/C [15]: 79.1% | viability, T/C [16]: 51.9% | viability, T/C [17]: 97.5% | viability, T/C [18]: 84% | viability, T/C [19]: 79.5% | viability, T/C [20]: 80% | viability, T/C [21]: 76.9% | viability, T/C [22]: 57.8% | viability, T/C [23]: 84.8% | viability, T/C [24]: 97.9% | viability, T/C [25]: 77.4% | viability, T/C [26]: 81.5% | viability, T/C [27]: 68.3% | viability, T/C [28]: 57.9% | viability, T/C (second compound 3.16 µM, first compound 0.000316 µM): 71.5% | viability, T/C (second compound 3.16 µM, first compound 0.001 µM): 85.4% | viability, T/C (second compound 3.16 µM, first compound 0.00316 µM): 82.8% | viability, T/C (second compound 3.16 µM, first compound 0.01 µM): 64.3% | viability, T/C (second compound 3.16 µM, first compound 0.0316 µM): 64.7% | viability, T/C (second compound 3.16 µM, first compound 0.1 µM): 48.2% | viability, T/C (second compound 10 µM, first compound 0.000316 µM): 55.1% | viability, T/C (second compound 10 µM, first compound 0.001 µM): 59.4% | viability, T/C (second compound 10 µM, first compound 0.00316 µM): 58.8% | viability, T/C (second compound 10 µM, first compound 0.01 µM): 63.4% | viability, T/C (second compound 10 µM, first compound 0.0316 µM): 46.5% | viability, T/C (second compound 10 µM, first compound 0.1 µM): 31.2%
